Results published in PubChem BioAssay AID1963866 (Molecular Pharmacology Branch, DTP, NCI, 2024).

Test system: PDC KRAS tumor spheroids with HUVEC/MSC, viability
Test: Anticancer human tumor 349418-098-R-PDC patient-derived lung adenocarcinoma cell line growth inhibition [KRAS2]
Settings: for IC50: curve of first compound; for viability, T/C: stronger effect = lower value
In short: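 Combination screen of spheroid viability in tumor-cell co-cultures with endothelial (HUVEC) and mesenchymal stem cell stroma. Each agent was tested in half-log dilutions, topping at clinical Cmax or at 10 microM without a known Cmax.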

[1] = second compound 0.1 µM, first compound 0.01 µM
[2] = second compound 0.1 µM, first compound 0.0316 µM
[3] = second compound 0.1 µM, first compound 0.1 µM
[4] = second compound 0.1 µM, first compound 0.316 µM
[5] = second compound 0.1 µM, first compound 1 µM
[6] = second compound 0.1 µM, first compound 3.16 µM
[7] = second compound 0.316 µM, first compound 0.01 µM
[8] = second compound 0.316 µM, first compound 0.0316 µM
[9] = second compound 0.316 µM, first compound 0.1 µM
[10] = second compound 0.316 µM, first compound 0.316 µM
[11] = second compound 0.316 µM, first compound 1 µM
[12] = second compound 0.316 µM, first compound 3.16 µM
[13] = second compound 1 µM, first compound 0.01 µM
[14] = second compound 1 µM, first compound 0.0316 µM
[15] = second compound 1 µM, first compound 0.1 µM
[16] = second compound 1 µM, first compound 0.316 µM
[17] = second compound 1 µM, first compound 1 µM
[18] = second compound 1 µM, first compound 3.16 µM
[19] = second compound 3.16 µM, first compound 0.01 µM
[20] = second compound 3.16 µM, first compound 0.0316 µM
[21] = second compound 3.16 µM, first compound 0.1 µM
[22] = second compound 3.16 µM, first compound 0.316 µM
[23] = second compound 3.16 µM, first compound 1 µM
[24] = second compound 3.16 µM, first compound 3.16 µM
[25] = second compound 10 µM, first compound 0.01 µM
[26] = second compound 10 µM, first compound 0.0316 µM
[27] = second compound 10 µM, first compound 0.1 µM
[28] = second compound 10 µM, first compound 0.316 µM
[29] = second compound 10 µM, first compound 1 µM
[30] = second compound 10 µM, first compound 3.16 µM
[31] = second compound 0.1 µM, first compound 10 µM
[32] = second compound 0.316 µM, first compound 10 µM
[33] = second compound 1 µM, first compound 10 µM
[34] = second compound 3.16 µM, first compound 10 µM
[35] = second compound 10 µM, first compound 10 µM
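Also: spheroids exposed to compounds for seven days before readout.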

Q: How did the IC50 (second compound 0.1 µM) turn out when `CC1COCCN1c1cc(-c2ccnn2C)c2ccnc(-c3ccn[nH]3)c2n1` (stereo not given) + CNCc1ccccc1-c1csc(C(C)Nc2nc(C)nc3cc(OC)c(OC)cc23)c1 was run?
A: 25 nM

Q: What about the IC50 (second compound 0.316 µM) of the same compound?
A: 29.9 nM

Q: What about the IC50 (second compound 1 µM) of the same compound?
A: 18.5 nM

Q: And the IC50 (second compound 3.16 µM)?
A: < 10 nM

Q: And the IC50 (second compound 10 µM)?
A: < 10 nM

Q: What about the viability, T/C [1] of the same compound?
A: 114%

Q: And the viability, T/C [2]?
A: 33.4%

Q: What about the viability, T/C [3] of the same compound?
A: 10.6%

Q: And the viability, T/C [4]?
A: 7.11%

Q: What about the viability, T/C [5] of the same compound?
A: 5.04%

Q: What about the viability, T/C [6] of the same compound?
A: 3.83%

Q: What about the viability, T/C [7] of the same compound?
A: 107%

Q: And the viability, T/C [8]?
A: 47.1%

Q: What about the viability, T/C [9] of the same compound?
A: 11.1%

Q: What about the viability, T/C [10] of the same compound?
A: 5.41%

Q: What about the viability, T/C [11] of the same compound?
A: 4.13%

Q: And the viability, T/C [12]?
A: 3.71%

Q: And the viability, T/C [13]?
A: 92.1%

Q: What about the viability, T/C [14] of the same compound?
A: 13.4%

Q: What about the viability, T/C [15] of the same compound?
A: 3.84%

Q: What about the viability, T/C [16] of the same compound?
A: 4.41%

Q: What about the viability, T/C [17] of the same compound?
A: 3.23%

Q: What about the viability, T/C [18] of the same compound?
A: 2.84%

Q: And the viability, T/C [19]?
A: 0.09%

Q: And the viability, T/C [20]?
A: 0.21%

Q: What about the viability, T/C [21] of the same compound?
A: 0.12%

Q: And the viability, T/C [22]?
A: 0.03%

Q: And the viability, T/C [23]?
A: 0.04%

Q: And the viability, T/C [24]?
A: 0.13%

Q: And the viability, T/C [25]?
A: 0.08%

Q: And the viability, T/C [26]?
A: 0.07%

Q: And the viability, T/C [27]?
A: 0.07%

Q: What about the viability, T/C [28] of the same compound?
A: 0.07%

Q: What about the viability, T/C [29] of the same compound?
A: 0.08%

Q: What about the viability, T/C [30] of the same compound?
A: 0.13%

Q: `CC1OCC2(CCN(c3cnc(Sc4ccnc(N)c4Cl)c(N)n3)CC2)C1N` (stereo not given) + CNCc1ccccc1-c1csc(C(C)Nc2nc(C)nc3cc(OC)c(OC)cc23)c1 was tested. Which IC50 (second compound 0.1 µM) did it give?
A: > 10000 nM

Q: And the IC50 (second compound 0.316 µM)?
A: > 10000 nM

Q: What about the IC50 (second compound 1 µM) of the same compound?
A: < 31.6 nM

Q: And the IC50 (second compound 3.16 µM)?
A: < 31.6 nM

Q: And the IC50 (second compound 10 µM)?
A: < 31.6 nM

Q: What about the viability, T/C [2] of the same compound?
A: 84.7%

Q: And the viability, T/C [3]?
A: 98.9%

Q: What about the viability, T/C [4] of the same compound?
A: 65%

Q: What about the viability, T/C [5] of the same compound?
A: 103%

Q: What about the viability, T/C [6] of the same compound?
A: 111%

Q: What about the viability, T/C [31] of the same compound?
A: 88.3%

Q: And the viability, T/C [8]?
A: 103%

Q: What about the viability, T/C [9] of the same compound?
A: 91.1%

Q: And the viability, T/C [10]?
A: 109%

Q: And the viability, T/C [11]?
A: 88.2%

Q: What about the viability, T/C [12] of the same compound?
A: 88.4%

Q: And the viability, T/C [32]?
A: 72.9%

Q: What about the viability, T/C [14] of the same compound?
A: 42.8%

Q: And the viability, T/C [15]?
A: 35.4%

Q: And the viability, T/C [16]?
A: 34%

Q: And the viability, T/C [17]?
A: 46.8%

Q: What about the viability, T/C [18] of the same compound?
A: 50.6%

Q: And the viability, T/C [33]?
A: 16.5%

Q: What about the viability, T/C [20] of the same compound?
A: 0.05%

Q: What about the viability, T/C [21] of the same compound?
A: 0.07%

Q: And the viability, T/C [22]?
A: 0.06%

Q: What about the viability, T/C [23] of the same compound?
A: 0.41%

Q: What about the viability, T/C [24] of the same compound?
A: 0.12%

Q: What about the viability, T/C [34] of the same compound?
A: 0.17%

Q: And the viability, T/C [26]?
A: 0.06%

Q: And the viability, T/C [27]?
A: 0.07%

Q: And the viability, T/C [28]?
A: 0.06%

Q: What about the viability, T/C [29] of the same compound?
A: 0.35%

Q: And the viability, T/C [30]?
A: 0.07%

Q: What about the viability, T/C [35] of the same compound?
A: 0.12%

Q: What does the source list for `CCNC(=O)CC1N=C(c2ccc(Cl)cc2)c2cc(OC)ccc2-n2c(C)nnc21` (stereo not given) + CNCc1ccccc1-c1csc(C(C)Nc2nc(C)nc3cc(OC)c(OC)cc23)c1?
A: IC50 (second compound 0.1 µM): 133 nM; IC50 (second compound 0.316 µM): 124 nM; IC50 (second compound 1 µM): 77.3 nM; IC50 (second compound 3.16 µM): < 31.6 nM; IC50 (second compound 10 µM): < 31.6 nM; viability, T/C [2]: 103%; viability, T/C [3]: 58.5%; viability, T/C [4]: 24.3%; viability, T/C [5]: 12.4%; viability, T/C [6]: 2.7%; viability, T/C [31]: 1.11%; viability, T/C [8]: 107%; viability, T/C [9]: 55.7%; viability, T/C [10]: 24.7%; viability, T/C [11]: 13.5%; viability, T/C [12]: 2.81%; viability, T/C [32]: 1.21%; viability, T/C [14]: 86.6%; viability, T/C [15]: 39.5%; viability, T/C [16]: 13.9%; viability, T/C [17]: 4.94%; viability, T/C [18]: 0.98%; viability, T/C [33]: 0.31%; viability, T/C [20]: 0.11%; viability, T/C [21]: 0.08%; viability, T/C [22]: 0.04%; viability, T/C [23]: 0.02%; viability, T/C [24]: 0.01%; viability, T/C [34]: 0.08%; viability, T/C [26]: 0.11%; viability, T/C [27]: 0.11%; viability, T/C [28]: 0.09%; viability, T/C [29]: 0.09%; viability, T/C [30]: 0.08%; viability, T/C [35]: 0.28%

Q: Which results are given for `Cn1nccc1Nc1nccc(-c2cc3c(s2)C(C)(C)N(CCN2CCOCC2)C3=O)n1` + CNCc1ccccc1-c1csc(C(C)Nc2nc(C)nc3cc(OC)c(OC)cc23)c1?
A: IC50 (second compound 0.1 µM): 37.8 nM; IC50 (second compound 0.316 µM): < 31.6 nM; IC50 (second compound 1 µM): < 31.6 nM; IC50 (second compound 3.16 µM): < 31.6 nM; IC50 (second compound 10 µM): < 31.6 nM; viability, T/C [2]: 54.8%; viability, T/C [3]: 25.9%; viability, T/C [4]: 12.2%; viability, T/C [5]: 8.63%; viability, T/C [6]: 5.95%; viability, T/C [31]: 4.72%; viability, T/C [8]: 48.3%; viability, T/C [9]: 21.5%; viability, T/C [10]: 10.3%; viability, T/C [11]: 6.91%; viability, T/C [12]: 6.22%; viability, T/C [32]: 3.95%; viability, T/C [14]: 28.4%; viability, T/C [15]: 8.49%; viability, T/C [16]: 3.82%; viability, T/C [17]: 2.34%; viability, T/C [18]: 1.92%; viability, T/C [33]: 1.22%; viability, T/C [20]: 0.04%; viability, T/C [21]: 0.3%; viability, T/C [22]: 0.06%; viability, T/C [23]: 0.07%; viability, T/C [24]: 0.05%; viability, T/C [34]: 0.1%; viability, T/C [26]: 0.19%; viability, T/C [27]: 0.25%; viability, T/C [28]: 0.07%; viability, T/C [29]: 0.08%; viability, T/C [30]: 0.23%; viability, T/C [35]: 0.13%

Q: Which results are given for `CC(=O)OC12COC1CC(O)C1(C)C(=O)C(O)C3=C(C)C(OC(=O)C(O)C(NC(=O)OC(C)(C)C)c4ccccc4)CC(O)(C(OC(=O)c4ccccc4)C21)C3(C)C` (stereo not given) + COc1cc2nc(C)nc(NC(C)c3cc(N)cc(C(F)(F)F)c3)c2cc1OC1CCOC1?
A: IC50 (second compound 0.1 µM): < 10 nM; IC50 (second compound 0.316 µM): < 10 nM; IC50 (second compound 1 µM): < 10 nM; IC50 (second compound 3.16 µM): < 10 nM; IC50 (second compound 10 µM): < 10 nM; viability, T/C [1]: 22%; viability, T/C [2]: 25.7%; viability, T/C [3]: 24%; viability, T/C [4]: 33.4%; viability, T/C [5]: 27.4%; viability, T/C [6]: 38.3%; viability, T/C [7]: 20.7%; viability, T/C [8]: 27.1%; viability, T/C [9]: 25.8%; viability, T/C [10]: 23.7%; viability, T/C [11]: 28.6%; viability, T/C [12]: 34.5%; viability, T/C [13]: 22.8%; viability, T/C [14]: 31.1%; viability, T/C [15]: 27.4%; viability, T/C [16]: 33.7%; viability, T/C [17]: 27.8%; viability, T/C [18]: 29.6%; viability, T/C [19]: 18.3%; viability, T/C [20]: 21.3%; viability, T/C [21]: 21.7%; viability, T/C [22]: 26.3%; viability, T/C [23]: 28.3%; viability, T/C [24]: 22.1%; viability, T/C [25]: 20.1%; viability, T/C [26]: 23.3%; viability, T/C [27]: 25.4%; viability, T/C [28]: 20.4%; viability, T/C [29]: 23.2%; viability, T/C [30]: 26.2%
